# According to publication PMC5458187, “Inhibitor SBFI26 suppresses the malignant progression of castration-resistant PC3-M cells by competitively binding to oncogenic FABP5” (Oncotarget, 2017):
# Where “and” joins values, the source holds several entries; their conditions need not be identical. Identical values can stand only once.
# Experiments:
# wtrFABP5 = wtrFABP5 (Homo sapiens, UniProt Q01469); experiment: DAUDA displacement assay (ligand binding); details: for relative level of fluorescence intensity after adding ligand to the DAUDA-wtrFABP5 complex: 10 μM ligand, 2 μM DAUDA, 3 μM wtrFABP5, complex without ligand 2.65 ± 0.14; for Ki: displacement of 2 μM DAUDA from 3 μM wtrFABP5, ligand 0.5–20 μM, Ki = IC50/1+(DAUDA/Kd), read-out: inhibition constant Ki (binding affinity)
# Excerpt: The fatty acid-binding ability of wtrFABP5 was examined by using the DAUDA displacement assay which used fatty acids and different chemical compounds to replace the fluorescently labelled fatty acid analogue DAUDA (Cayman). […] For each experiment, the fluorescence data were normalized to the peak fluorescent intensity, and then subtracted from the data of samples without protein. The data were fitted by nonlinear regression using GraphPad Prism software to a saturation binding curve model to estimate the apparent dissociation constant (Kd) and maximal fluorescence intensity (Bmax). […] The Ki of each ligand was determined using the equation Ki = IC50/1+ (DAUDA concentration /Kd).
# PC3-M cells [1] = experiment: Cell viability MTT assay; format: cell-based, human; details: 24 h
# Method: (§1) PC3-M cells (5 × 10^4) were plated in triplicate in 96 well plates and incubated overnight. Cells were treated with different concentrations of SBFI26 (25–125 μM) for 24 h. Cell viability was assessed using MTT assay, as described previously. The anti-proliferative effect of the best concentration for SBFI26 was determined after 6 days of treatment.
# PC3-M cells [2] = experiment: Proliferation MTT assay; format: cell-based, human; details: 100 μM
# Method: as §1
# PC3-M cells [3] = experiment: Wound healing migration assay; format: cell-based, human; details: 100 μM, 24 h; control gap closure 94%
# Method: Wound healing migration assay was carried out to evaluate the effect of SBFI26 on the migratory rate of PC3-M cells. Wounds were generated by scratching the monolayer cells with a blue pipette tip. The floating cells were removed by washing with PBS and inhibitors were added to the culture medium. The wound was photographed under the microscope at 0, 12 and 24 h after treatment and the wound widths were assessed by quantitative analysis using ImageJ software.
# PC3-M cells [4] = experiment: Boyden chamber invasion assay; format: cell-based, human; details: 100 μM, 24 h
# Method: PC3-M cells in serum-free medium were seeded in the upper Boyden chamber (BD Biosciences) in triplicate at a density of 2.5 × 10^4 cells per well in serum-free medium. Complete medium was added to the lower chambers. After 3 hours of incubation, 100 μM SBFI26 was added to the upper chambers. After 24 h of incubation, cells that invaded the lower chambers were stained with crystal violet and counted with a cell counter.
# PC3-M cells [5] = experiment: Soft-agar colony formation assay; format: cell-based, human; details: 100 μM
# Method: Low melting agarose was seeded in 6-well plates and 5 × 10^4 cells/well layered on agar, followed by 200 μl of medium alone or medium with FABP5 inhibitor SBFI26. Colonies larger than 300 μm in each well were counted 2 weeks later in a similar way to that described previously.
# [6] = system: PC3-M-Luc8 cells implanted orthotopically into the prostate gland; experiment: Orthotopic nude mouse assay of tumorigenicity and metastasis; format: in vivo, Balb/c nude mice
# Method: PC3-M cells were transfected with the pGL4.50 [luc2/CMV/Hygro] vector (Promega) using FuGene HD transfection reagent (Promega) following the manufacturer’s instructions. Individual colonies were isolated by ring cloning and 3 colonies that stably-expressed the highest bioluminescence signals were identified using D-luciferin (Promega) with a Varioskan Flash Reader (Thermo Scientific). Association of the luminescence intensity with the number of cells was assessed by an IVIS imaging system (Perkin Elmer). Cells (5 × 10^5) from PC3-M- luc2 colony were suspended in 30 μL PBS and orthotopically implanted into the dorsal prostate of 33 male Balb/c nude mice (Charles River, UK) (8–10 weeks old), as described previously. One week later, tumour-bearing mice were divided into 2 groups (8 each) and subjected to the following intraperitoneally injections: 1) control with PBS; 2) SBFI26, 1mg/kg. Injections were repeated every two days for 25 days and the metastatic loci were monitored weekly using the IVIS after mice were subcutaneously injected with D-luciferin (150 mg/kg). Bioluminescence images was analysed using the Living Imagine software (Xenogen) and the measurement recorded was based on total photons/second (p/s) within each defined region of interest.
# [7] = system: PC3-M cells inoculated into the right flank; experiment: Subcutaneous nude mouse tumorigenicity assay; format: in vivo, nude mice
# Method: PC3-M cells (2 × 10^6) in 200 μL PBS were subcutaneously injected into the right flank region of the mouse (6–8 week old) to test the suppressive effect of the inhibitors on tumorigenicity. In the first round, 3 groups of mice (8 each) were used: 1) control with PBS; 2) 1mg/kg SBFI26, injected from the 1st day after cell inoculation; 3) 1mg/kg SBFI26, injected from the 7th day after cell inoculation. In the second round, 2 groups of mice (5 each) were used and at 7 days after the cell inoculation, each group was subjected to different intra-tumoural injections: 1) control with PBS; 2) PPARγ antagonist (GW9662, 1mg/kg) (Sigma). The injections were repeated every 2 days for 30 days, tumour size was measured every 3–4 days and the volume calculated by the formula of L× W×H×0.5236 [56]. Work was performed in accordance with UKCCCR guidelines under Home Office License PPL40/2963.
# [8] = system: fatty acid uptake of PC3-M cells; experiment: Fatty acid uptake assay with BODIPY-labelled fatty acid; format: cell-based, human; details: 30 min; for cells with BODIPY-labelled fatty acid uptake (M2): control 92.9%
# Method: Assay for fatty acid uptake was performed using red fluorescence-labelled BODIPY [57]. The fluorescence intensity from cells before and 30 minutes after adding BODIPY was measured to determine fatty acid uptake. In inhibition and competition experiments, different concentrations of unlabelled lead compound SBFI26 (50–200 μM) with the same concentration of labelled BODIPY were added directly to the highly malignant PC3-M cells.
# [9] = system: p-PPARγ1 and p-PPARγ2 in PC3-M cells; experiment: Western blot of phosphorylated PPARγ in PC3-M cells; format: cell-based, human; details: for reduction in level of p-PPARγ1 / reduction in level of p-PPARγ2: untreated set at 1
# [10] = system: p-PPARγ1 and p-PPARγ2 in 22RV1 cells; experiment: Western blot of phosphorylated PPARγ in 22RV1 cells; format: cell-based, human; details: for effect on levels of p-PPARγ1 and 2: 22RV1, 24 h
# PPARγ = system: PPARγ; parameters: method as in PMID 23236415; details: cited from earlier work
# Sequence of wtrFABP5 (Q01469 whole entry): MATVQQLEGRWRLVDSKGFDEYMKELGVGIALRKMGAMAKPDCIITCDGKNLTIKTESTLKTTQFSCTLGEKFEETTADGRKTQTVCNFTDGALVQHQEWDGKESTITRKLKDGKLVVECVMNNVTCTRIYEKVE
compound,measurement,setting,value
CCCCC/C=C\C/C=C\CCCCCCCC(=O)O [linoleic acid],relative level of fluorescence intensity after adding ligand to the DAUDA-wtrFABP5 complex,wtrFABP5,1.37 ± 0.07
same,Ki,wtrFABP5,1570 nM
"O=C(O)C1C(c2ccccc2)C(C(=O)Oc2cccc3ccccc23)C1c1ccccc1 (stereo not drawn) [SBFI26, α-truxillic acid 1-naphthyl mono-ester]",reduction in cell numbers,PC3-M cells [1]; 100 μM,26%
same,concentration producing maximum suppression of viability,PC3-M cells [1]; MTT,100 µM
same,reduction of proliferation rate,PC3-M cells [2],17 times
same,reduction in wound size,PC3-M cells [3],19%
same,suppression of invasion,PC3-M cells [4]; vs control,95.5%
same,mean number of invaded cells,PC3-M cells [4]; control 22 ± 3,1 ± 1
same,inhibition of colony formation,"PC3-M cells [5]; 2 weeks, vs control",100%
same,number of colonies formed in soft agar,"PC3-M cells [5]; after 2 weeks, control 124 ± 18",0
same,suppression in metastasis incidence compared to control,"[6]; 25 days, 1 mg/kg i.p.",50%
same,mice that produced visceral metastasis (number/total),"[6]; 25 days, 1 mg/kg i.p., control 7/7",4/8
same,mice that produced visceral metastasis,"[6]; 25 days, 1 mg/kg i.p., control 100%",50%
same,metastasis sites by histological staining,"[6]; H&E, control: all mice, mainly liver and lung",half of the mice developed liver metastases with no metastasis in the lung
same,bioluminescence signal,"[6]; day 25, 1 mg/kg intraperitoneally, control 31.5 × 10^8",6.66 × 10^8 p/sec/cm^2
same,suppression of tumour volume vs control,[7]; SBFI26 1 mg/kg for 31 days,52%
same,average tumour volume on termination,"[7]; SBFI26 1 mg/kg for 31 days, n = 8, control 627 ± 120 mm^3",302 ± 86 mm^3
same,unstained cells (M1),[8]; 50 μM,20.76%
same,cells with BODIPY-labelled fatty acid uptake (M2),[8]; 50 μM,79.24%
same,unstained cells (M1),[8]; 100 μM,32.31%
same,cells with BODIPY-labelled fatty acid uptake (M2),[8]; 100 μM,67.7% and 67.69%
same,unstained cells (M1),[8]; 150 μM,30.88%
same,cells with BODIPY-labelled fatty acid uptake (M2),[8]; 150 μM,69.12%
same,unstained cells (M1),[8]; 200 μM,30.79%
same,cells with BODIPY-labelled fatty acid uptake (M2),[8]; 200 μM,69.21%
same,average reduction in both PPARγ activated isoforms,[9],about 50%
same,reduction in level of p-PPARγ1,[9]; 24 hours,44%
same,reduction in level of p-PPARγ2,[9]; 24 hours,46%
same,average reduction in both PPARγ activated isoforms,[10]; 22RV1,33.5%
same,effect on levels of p-PPARγ1 and 2,[10],suppressed the levels of both p-PPARγ isoforms
same,activity at PPARγ,PPARγ,weak agonist of PPARγ
O=C(Nc1ccccc1)c1cc([N+](=O)[O-])ccc1Cl [GW9662],suppression of tumour size vs control,[7]; GW9662 1 mg/kg from day 7,67%
same,average size of tumours,"[7]; GW9662 1 mg/kg intra-tumoural from day 7, n = 5, control 774 ± 202 mm^3",252 ± 84 mm^3
same,reduction in level of p-PPARγ1,[9]; 24 hours,52%
same,reduction in level of p-PPARγ2,[9]; 24 hours,51%
CN(C)c1cccc2c(S(=O)(=O)NCCCCCCCCCCC(=O)O)cccc12 [DAUDA],Kd,"wtrFABP5; 3 μM wtrFABP5 titrated with DAUDA 0.4–3 μM, ex 345/em 530 nm, read-out: apparent dissociation constant (Kd) of DAUDA to wtrFABP5",1860 ± 160 nM
same,maximal fluorescence intensity (Bmax),wtrFABP5; DAUDA titration to 3 μM wtrFABP5,3.579
CCCCCCCC/C=C\CCCCCCCC(=O)O [oleic acid],relative level of fluorescence intensity after adding ligand to the DAUDA-wtrFABP5 complex,wtrFABP5,1.68 ± 0.09
same,Ki,wtrFABP5,1890 nM
wtrFABP5: FABP5 protein (wtrFABP5) used as binding target and as treatment of 22RV1 cells,effect on levels of p-PPARγ1 and 2,[10],significantly increased levels of both p-PPARγ1 and 2
CN(CCOc1ccc(CC2SC(=O)NC2=O)cc1)c1ccccn1 (centres unmarked) [rosiglitazone],effect on levels of p-PPARγ isoforms,[9]; 24 hours,significantly increased levels of both p-PPARγ isoforms
